In patent US5196428A, “Imidazo[4,5-b]qinolinyl oxy alkyl ureas” (Bristol-Myers Squibb Company, priority 1992, dated 1993):
In brackets after ≈: the same amount, converted by molar mass. Where a name gives a salt, the structure may show the parent alone. Read-outs that look alike come from different tables or passages of the source.

Key:
Aqueous solubility = type: physicochemical; settings: water
[1] = tested on: human blood platelets in platelet-rich-plasma (ADP-induced aggregation); test: In vitro inhibition of ADP-induced human platelet aggregation (aggregometer method of Born); type: cell-based
Procedure: The aggregometer method of Born, G. V. R., J. Physiol., (London), 162, 67-68, (1962) as modified by Mustard, J. F., et al., J. Lab. Clin. Med., 64, 548-599, (1964) was used to assess the in vitro activity of the various compounds as to the inhibition of adenosine diphosphate (ADP) and collagen-induced platelet aggregation. The human volunteer donor's arm is cleansed with 70% ethyl alcohol. A sterile 20 ml syringe and needle are used to withdraw 20 ml of blood. The blood is immediately added to a test tube containing 3.8% sodium citrate to prevent clotting (1 part citrate to 9 parts blood).
Platelet rich plasma (PRP) was separated by centrifugation for 10 minutes at 1000 rpm (140 g) from citrated (3.8%) human blood. All glassware used for preparation of PRP is silicon treated. ADP in final concentration of 0.5 mcg/mL or 0.05 mL of a collagen suspension prepared according to the method described by Evans, G., et al., J. Exp. Med., 128, 877-894, (1968) was used to induce aggregation. The various compounds tested were dissolved in dimethylsulfoxide (DMSO) so that 5 mcl added to the platelet rich plasma would yield the desired test concentration. Vehicle control trials were done and compared with aggregation induced in platelet rich plasma containing various concentrations of the test compounds. Dose response curves were obtained and Inhibitor Concentration (IC50) values calculated.
The target compounds were evaluated as inhibitors of ADP-induced aggregation of human blood platelets in platelet-rich-plasma (PRP) in vitro.

[2] = 0.05 h, ADP 0.5 mcg/mL, human PRP, standard protocol: about 3 minutes incubation prior to agonist, read-out: IC50 vs ADP in human PRP

Structure (SMILES) | solubility (Aqueous solubility) [µg/mL] | IC50 [1, 2] [µg/mL] | IC50 ([1]; Homo sapiens, incubation with PRP for about 15 minutes prior to adding ADP, read-out: observed IC50, ADP-induced aggregation) [µg/mL] | IC50 ([1]; Homo sapiens, read-out: concentration providing 50% inhibition of ADP-induced aggregation, incubation with PRP for about 3 minutes prior to addition of the agonist) [µg/mL]
CCOC(=O)NCCCOc1ccc2nc3[nH]c(=O)[nH]c3cc2c1 [Cmpd 7a] | < 10000 | 0.035 (≈ 0.106 µM) | – | –
CN(C(=O)NCCCOc1ccc2nc3[nH]c(=O)[nH]c3cc2c1)C1CCCCC1 [Cmpd 7b, N-Cyclohexyl-N'-[3-[(2,3-dihydro-2-oxo-1H-imidazo[4,5-b]quinolin-7-yl)oxy]propyl]-N-methylurea] | < 10000 | 0.04 (≈ 0.101 µM) | – | –
Cl.O=C(NCCCOc1ccc2nc3[nH]c(=O)[nH]c3cc2c1)NC1CCCCC1 [Cmpd 7c, N-Cyclohexyl-N'-[3-[(2,3-dihydro-2-oxo-1H-imidazo[4,5-b]quinolin-7-yl)oxy]propyl]urea hydrochloride] | < 10000 | 0.3 | – | –
O=C(NCCCOc1ccc2nc3[nH]c(=O)[nH]c3cc2c1)N1CCOCC1 [Cmpd 7d] | < 10000 | 1.2 (≈ 3.23 µM) | – | –
Cl.O=C(NCCCOc1ccc2nc3[nH]c(=O)[nH]c3cc2c1)N1CCC(Cc2ccccc2)CC1 [Cmpd 7e, N-[3-(2,3-dihydro-2-oxo-1H-imidazo[4,5-b]quinolin-7yloxy)propyl]-4-(phenylmethyl)-1-piperidinecarboxamide hydrochloride] | < 200 | 0.08 | – | –
Cl.Cl.O=C(NCCCOc1ccc2nc3[nH]c(=O)[nH]c3cc2c1)N1CCN(CC2CCCCC2)CC1 [Cmpd 7f, 4-(Cyclohexylmethyl)-N-[3-(2,3-dihydro-2-oxo-1H-imidazo[4,5-b]quinolin-7yloxy)propyl]-1-piperazinecarboxamide dihydrochloride] | > 20000 | 0.04 | – | –
O=C(NCCCOc1ccc2nc3[nH]c(=O)[nH]c3cc2c1)N1CCN(CC2CCCCCC2)CC1 [Cmpd 7g, 4-(Cycloheptylmethyl)-N-[3-(2.3-dihydro-2-oxo-1H-imidazo[4,5-b]quinolin-7yloxy)propyl]-1piperazinecarboxamide dihydrochloride] | 2000 | 0.03 | – | –
Cl.Cl.O=C(NCCCOc1ccc2nc3[nH]c(=O)[nH]c3cc2c1)N1CCN(CC2CCCC2)CC1 [Cmpd 7h, 4-(Cyclopentylmethyl)-N-[3-(2,3-dihydro-2-oxo-1H-imidazo[4,5-b]quinolin-7yloxy)propyl]-1-piperazinecarboxamide dihydrochloride] | 700 | 0.05 | – | –
Cl.Cl.O=C(NCCCOc1ccc2nc3[nH]c(=O)[nH]c3cc2c1)N1CCN(CCC2CCCCC2)CC1 [Cmpd 7i, 4-(Cyclohexylethyl)-N-[3-(2,3-dihydro-2-oxo-1H-imidazo [4,5-b]quinolin-7yloxy)propyl]-1-piperazinecarboxamide dihydrochloride] | 500 | 0.04 | – | –
O=C(NCCCOc1ccc2nc3[nH]c(=O)[nH]c3cc2c1)N1CCN(CC2CCCCO2)CC1 (stereo not drawn) [Cmpd 7j, N-[3-(2,3-dihydro-2-oxo-1H-imidazo[4,5-b]quinolin-7yloxy)propyl-4-(tetrahydro-2H-pyran-2-yl)methyl]-1-piperazinecarboxamide dihydrochloride ethanol solvate] | > 20000 | 0.09 | – | –
CC(C)CN1CCN(C(=O)NCCCOc2ccc3nc4[nH]c(=O)[nH]c4cc3c2)CC1.Cl.Cl [Cmpd 7k, N-[3-(2,3-dihydro-2-oxo-1H-imidazo[4,5-b]quinolin-7yloxy)propyl]-4-(2-methylpropyl]-1-piperazinecarboxamide dihydrochloride] | > 20000 | 0.09 | – | –
CCC(CC)CN1CCN(C(=O)NCCCOc2ccc3nc4[nH]c(=O)[nH]c4cc3c2)CC1.Cl.Cl [Cmpd 7l, N-[3-(2,3-dihydro-2-oxo-1H-imidazo[4,5-b]quinolin-7yloxy)propyl]-4-(2-ethylbutyl)-1-piperazinecarboxamide dihydrochloride] | > 20000 | 0.022 | – | –
CCCC(CCC)CN1CCN(C(=O)NCCCOc2ccc3nc4[nH]c(=O)[nH]c4cc3c2)CC1.Cl.Cl [Cmpd 7m, N-[3-(2,3-dihydro-2-oxo-1H-imidazo[4,5-b]quinolin-7yloxy)propyl]-4-(2-propylpentyl]-1-piperazinecarboxamide dihydrochloride] | 500 | 0.07 | – | –
O=C(NCCCOc1ccc2nc3[nH]c(=O)[nH]c3cc2c1)N1CCNCC1 [Cmpd 7n, N-[3-(2.3-dihydro-2-oxo-1H-imidazo4.5-b]quinolin-7yloxy)propyl]-1-piperazinecarboxamide dihydrochloride ethanol solvate] | < 500 | 3.8 | – | –
O=C(NCCCOc1ccc2nc3[nH]c(=O)[nH]c3cc2c1)N1CCN(Cc2ccccc2)CC1 [Cmpd 7o, N-[3-(2,3-dihydro-2-oxo-1H-imidazo[4,5-b]quinolin-7yloxy)propyl]-4-(phenylmethyl)-1-piperazinecarboxamide dihydrochloride ethanol solvate] | > 20000 | 0.18 | – | –
O=C(NCCCOc1ccc2nc3[nH]c(=O)[nH]c3cc2c1)N1CCN(Cc2ccc(Cl)cc2)CC1 [Cmpd 7p, N-[3-(2,3-dihydro-2-oxo-1H-imidazo[4,5-b]quinolin-7yloxy)propyl]-4-(4-chlorophenyl)methyl)-1-piperazine carboxamide dihydrochloride] | 200 | 0.17 | – | –
O=C(NCCCOc1ccc2nc3[nH]c(=O)[nH]c3cc2c1)N1CCN(Cc2ccc(F)cc2)CC1 [Cmpd 7q, N-[3-(2,3-dihydro-2-oxo-1H-imidazo[4,5-b]quinolin-7yloxy)propyl]-4-[(4-fluorophenyl)methyl)-1-piperazine carboxamide dihydrochloride ethanol solvate] | > 20000 | 0.205 | – | –
O=C(NCCCOc1ccc2nc3[nH]c(=O)[nH]c3cc2c1)N1CCN(CCc2ccccc2)CC1 [Cmpd 7r, N-[3-(2,3-dihydro-2-oxo-1H-imidazo[4,5-b]quinolin-7yloxy)propyl]-4-[(2-phenylethyl)-1-piperazinecarboxamidedihydrochloride] | 250 | 0.17 | – | –
O=C(NCCCOc1ccc2nc3[nH]c(=O)[nH]c3cc2c1)N1CCN(Cc2cccs2)CC1 [Cmpd 7s, N-[3-(2,3-dihydro-2-oxo-1H-imidazo[4,5-b]quinolin-7yloxy)propyl]-4-[(2-thienyl)methyl)-1-piperazinecarboxamide dihydrochloride ethanol solvate] | > 10000 | 0.09 | – | –
O=C(NCCCOc1ccc2nc3[nH]c(=O)[nH]c3cc2c1)N1CCN(Cc2ccsc2)CC1 [Cmpd 7t, N-3-(2,3-dihydro-2-oxo-1H-imidazo[4,5-b]quinolin-7yloxy)propyl]-4-[(3-thienyl)methyl)-1-piperazinecarboxamide dihydrochloride] | 3000 | 0.15 | – | –
Cl.Cl.O=C(NCCCOc1ccc2nc3[nH]c(=O)[nH]c3cc2c1)N1CCC(N2CCCCC2)CC1 [Cmpd 7u, N-[3-(2,3-dihydro-2-oxo-1H-imidazo[4,5-b]quinolin-7yloxy)propyl]-4-(1-piperidinyl)-1-piperidinecarboxamide dihydrochloride] | > 20000 | 5.2 | – | –
Cl.Cl.O=C(NCCCOc1ccc2nc3[nH]c(=O)[nH]c3cc2c1)N1CCN(c2ncccn2)CC1 [Cmpd 7v, N-[3-(2,3-dihydro-2-oxo-1H-imidazo[4,5-b]quinolin-7yloxy)propyl]-4-(2-pyrimidinyl)-1-piperazinecarboxamide dihydrochloride] | 100 | 0.17 | – | –
O=C(NCCCOc1ccc2nc3[nH]c(=O)[nH]c3cc2c1)N1CCN(c2ccccn2)CC1 [Cmpd 7w, N-[3-(2,3-dihydro-2-oxo-1H-imidazo[4,5-b]quinolin-7yloxy)propyl]-4-(2-pyridyl)-1-piperazinecarboxamide dihydrochloride ethanol solvate] | 500 | 0.38 | – | –
O=C(CCCOc1ccc2nc3[nH]c(=O)[nH]c3cc2c1)N1CCN(CC2CCCCC2)CC1 [formula (3) compound, reference compound] | – | – | 0.041 | 0.182
